# Values quoted from earlier work in patent US20200237920A1, “STABLE INJECTABLE PHARMACEUTICAL COMPOSITION OF NEUROKININ 1 RECEPTOR ANTAGONIST AND PROCESS FOR PREPARATION THEREOF” (PHARMATHEN S.A., priority 2012, published 2020).
# Tests used:
# [1] = system: serotonin, dopamine or corticosteroid receptors
"affinity for serotonin, dopamine or corticosteroid receptors (in words) [1]",Compound,solubility in water (in words)
little or no affinity,C[C@@H](O[C@H]1OCCN(Cc2n[nH]c(=O)[nH]2)[C@H]1c1ccc(F)cc1)c1cc(C(F)(F)F)cc(C(F)(F)F)c1 [Aprepitant],
,CNC[C@H](O)[C@@H](O)[C@H](O)[C@H](O)CO.CNC[C@H](O)[C@@H](O)[C@H](O)[C@H](O)CO.C[C@@H](O[C@H]1OCCN(Cc2nn(P(=O)(O)O)c(=O)[nH]2)[C@H]1c1ccc(F)cc1)c1cc(C(F)(F)F)cc(C(F)(F)F)c1 [Fosaprepitant Dimeglumine],freely soluble in water
